The record followed here is patent US20110257087A1, “Protein Hydrolysate Compositions Having Enhanced CCK Releasing Activity” (SOLAE, LLC, priority 2008, published 2011).

In the test the test system is STC-1 cells. Briefly: CCK release by STC-1 cells (competitive enzyme assay of the cell-conditioned medium). The format is cell-based, mouse. The following applies: positive control, 100 nM PMA in 2 mg/ml BSA, 4 hour. As to the method: The protein hydrolysates were added to the media of STC-1 cells at a protein concentration of approximately 2 mg/mL, and the enzyme controls were added at equivalent dilutions of the control reaction mixture (which included the enzyme(s) in the absence of protein substrate). Plotted is the % CCK released into the media of STC-1 cells stimulated by the different protein hydrolysates generated by the pepsin or pepsin and pancreatin enzymes, compared to the control 100 nM PMA (which was set as 100%). Cell culture media alone and 2 mg/mL bovine serum albumin (BSA) were used as negative background controls. The PMA control consisted of 100 nM PMA in cell culture media containing 2 mg/ml BSA. % CCK released into the cell culture media was calculated as follows: […]
It is known that protein, in general, stimulates the release of CCK by enteroendocrine cells in the intestinal track of animals, including humans (Liddle, R. A., et al., (1986) Proteins But Not Amino Acids, Carbohydrates, or Fats Stimulate Cholecystokinin Secretion in the Rat. Am. J. Physiol. 251 (Gastrointest. Liver Physiol. 14): G243-G248). […] Degree of hydrolysis was determined by the reaction of primary amine groups with o-phthalaldehyde (OPA) vs. total amount of primary amine present in sample after acid hydrolysis (110° C. for 24 hours) (known as, the “OPA method”). […]

Take `CCCCCCCCCCCCCC(=O)O[C@@H]1[C@@H](C)[C@@]2(O)[C@@H](C=C(CO)C[C@]3(O)C(=O)C(C)=C[C@@H]23)[C@@H]2C(C)(C)[C@]12OC(C)=O` [PMA, phorbol 12-myristate-13-acetate]: the “CCK Release (ng/ml) mean ± sem” value was determined as 0.171 ± 0.003 ng/mL.
